pEC50: −log10 of the molar value. Counter-ions that a name gives are not always drawn.
Target: Serine/threonine-protein kinase 33 (Homo sapiens, UniProt Q9BYT3)
Assay: STK33 kinase inhibitors, dose response, biochemical, luminescence, cell-free, retest (AID 2821)

Serine/threonine-protein kinase 33, sequence (Q9BYT3 whole entry): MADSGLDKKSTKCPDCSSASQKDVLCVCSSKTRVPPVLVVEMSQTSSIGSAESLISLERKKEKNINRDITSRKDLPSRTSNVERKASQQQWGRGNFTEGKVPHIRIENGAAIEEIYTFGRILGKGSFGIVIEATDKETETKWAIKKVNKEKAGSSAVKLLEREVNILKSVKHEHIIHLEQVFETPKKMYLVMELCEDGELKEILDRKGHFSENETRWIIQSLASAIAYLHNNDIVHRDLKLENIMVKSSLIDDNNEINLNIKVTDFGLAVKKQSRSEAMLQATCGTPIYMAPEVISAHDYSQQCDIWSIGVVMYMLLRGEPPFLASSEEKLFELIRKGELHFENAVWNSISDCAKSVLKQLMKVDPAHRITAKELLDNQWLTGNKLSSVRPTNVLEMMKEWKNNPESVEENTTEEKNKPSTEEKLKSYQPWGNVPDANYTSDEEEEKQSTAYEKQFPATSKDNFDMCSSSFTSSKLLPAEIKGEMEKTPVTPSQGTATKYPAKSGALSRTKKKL

SMILES | pEC50
O=C(O)c1ccc(NC(=O)c2cccc(C(=O)Nc3ccc(C(=O)O)cc3)n2)cc1 [4-[[6-[(4-carboxyphenyl)carbamoyl]pyridin-2-yl]carbonylamino]benzoic acid] | 4.55
O=c1c2ccccc2oc2ccc(NCCCN3CCOCC3)cc12 | 5.42
CCNc1nc(N)nc(-c2cc(Cl)ccc2O)n1 [(6E)-6-[6-amino-4-(ethylamino)-1H-1,3,5-triazin-2-ylidene]-4-chloro-1-cyclohexa-2,4-dienone] | 5.30
CCOc1ccc(Nc2nc(N)c3ccccc3n2)cc1 [N2-(4-ethoxyphenyl)quinazoline-2,4-diamine;hydrochloride] | < 3.92
COc1ccc(NC(=S)Nc2ccc3cn[nH]c3c2)cc1 [MLS001005420] | < 3.92
O=C1C=CC(O)(c2cc(=O)c3c(O)cc(O)cc3o2)C=C1 [SMR000156275] | < 3.92
O=C1N=C(NCc2ccccc2)SC1=Cc1ccc(O)cc1 [SMR000217101] | 5.67
Cc1nn(C)cc1/C=C/C(=O)c1ccc(O)cc1 | 4.54
Oc1ccc(CN=Nc2ccc(C(F)(F)F)cn2)cc1 [4-[[2-[5-(trifluoromethyl)pyridin-2-yl]hydrazinyl]methylidene]cyclohexa-2,5-dien-1-one] | 4.85
CC(C)(C)c1[nH]nc2c1C(=O)c1ccccc1-2 [SMR000528110] | 4.60
Cc1cc(C=C2C(=O)c3ccccc3C2=O)c(C)n1-c1ccc(C(=O)O)cc1 [4-[3-[(1,3-dioxo-2-indenylidene)methyl]-2,5-dimethyl-1-pyrrolyl]benzoic acid] | 4.71
S=C(Nc1ccccc1)Nc1ccc2c[nH]nc2c1 [MLS000516600] | 4.71
CN1CCN(c2nc(-c3ccccc3O)nc3ccccc23)CC1 [SMR000539302] | 4.37
CCN(CC)c1ccc(/C=C2\C(=O)c3ccc(C(=O)O)cc3C2=O)cc1 [2-[1-(4-Diethylamino-phenyl)-meth-(E)-ylidene]-1,3-dioxo-indan-5-carboxylic acid] | 5.25
Oc1ccc(C=NNC(=S)NN=Cc2ccc(O)cc2)cc1 [1,3-bis[(4-oxo-1-cyclohexa-2,5-dienylidene)methylamino]thiourea] | 4.39
CN(C)c1nc2sc3c(c2c(=O)n1C)CC(C)(C)OC3 [MLS000071412] | < 3.92
O=C(Nc1ccccc1C(=O)O)c1cccc(C(=O)Nc2ccccc2C(=O)O)c1 [The compound has not trivial name.] | 4.23
COC(=O)Nc1nnc(Cc2ccccc2)s1 [N-[5-(phenylmethyl)-1,3,4-thiadiazol-2-yl]carbamic acid methyl ester] | < 3.92
NC(=O)NN=Cc1c(O)ccc2oc3c(c12)CCCC3 [SMR000414386] | 5.91
Cc1ncc(C=C2C(=O)Nc3ccccc32)[nH]1 [3-[(Z)-(2-methyl-1H-imidazol-4-yl)methylidene]-1H-indol-2-one] | 5.47
NS(=O)(=O)c1ccc2c(c1)C(N=O)c1cc(S(N)(=O)=O)ccc1-2 | 5.31
COc1cc(CN=Nc2ccc(C(F)(F)F)cn2)ccc1O [(4E)-2-methoxy-4-[[[5-(trifluoromethyl)-2-pyridinyl]hydrazo]methylidene]-1-cyclohexa-2,5-dienone] | 4.72
CC1CCN(C2=NC(=O)/C(=C/c3ccc(O)cc3)S2)CC1 [MLS001205076] | 4.98
S=C(Nc1cccnc1)Nc1cccc2cnccc12 [SMR000348842] | < 3.92

SMILES | pEC50
COc1ccc(NC(=O)c2cc([N+](=O)[O-])ccc2O)cc1 | 4.73
CCCCCCCCCCCCCCCCn1cc[n+](C)c1 [1-cetyl-3-methyl-imidazol-3-ium;bromide] | < 3.92
O=C(Nc1ccccc1-c1nc2ccccc2[nH]c1=O)c1cccs1 [N-[2-(3-oxo-4H-quinoxalin-2-yl)phenyl]-2-thiophenecarboxamide] | 5.68
COc1ccc(C(=O)ON=C(C)c2ccccc2)cc1 [SMR000159704] | 4.17
O=C1NC(=O)/C(=C\c2ccc(O)cc2O)S1 [SMR000274064] | 5.06
O=C(Nc1nc2ccccc2[nH]1)c1ccc(Br)o1 [SMR000352903] | 5.00
COc1cc(C=Nn2c(S)nnc2-c2[nH]nc3c2CCC3)ccc1O [(4E)-2-methoxy-4-[[[5-sulfanylidene-3-(1,4,5,6-tetrahydrocyclopenta[c]pyrazol-3-yl)-1H-1,2,4-triazol-4-yl]amino]methylidene]cyclohexa-2,5-dien-1-one] | 4.98
Nc1nc(N)nc(-c2cc(O)ccc2O)n1 [(6E)-6-(4,6-diamino-1H-1,3,5-triazin-2-ylidene)-4-hydroxycyclohexa-2,4-dien-1-one] | 5.15
CS(=O)(=O)Nc1ccc(-c2cc(C=C3SC(N)=NC3=O)c[nH]c2=O)cc1 [N-[4-[5-[(Z)-(2-azanyl-4-oxidanylidene-1,3-thiazol-5-ylidene)methyl]-2-oxidanylidene-1H-pyridin-3-yl]phenyl]methanesulfonamide] | 5.09
Oc1ccc(/N=C/c2c(O)ccc3ccccc23)cc1 [(1Z)-1-[(4-hydroxyanilino)methylidene]-2-naphthalenone] | 5.55
COc1ccc(/C=C/c2nc3ccccc3n2C)cc1 [MLS000719304] | 4.58
CCn1cc(/C=C/C(=O)c2ccc(O)cc2)c(C)n1 [(E)-3-(1-ethyl-3-methyl-4-pyrazolyl)-1-(4-hydroxyphenyl)-2-propen-1-one] | 5.01
CCN(CC)C(=O)c1ccc(NC(=O)Nc2ccccc2F)cc1 [SMR000376874] | < 3.92
CCCCC(CC)CNC(=N)NC(=N)NCCCCCCNC(=N)NC(=N)NCC(CC)CCCC (stereo not given) [MLS002153995] | < 3.92
O=c1c(O)c(-c2cc(O)c(O)c(O)c2)oc2cc(O)cc(O)c12 | 4.75
CN1CCCC1CCNc1ccc2oc3ccccc3c(=O)c2c1 (stereo not given) [MLS001249997] | < 3.92
CCOc1ccccc1C(=O)Nc1cc(Cl)ccc1O [N-(5-chloranyl-2-oxidanyl-phenyl)-2-ethoxy-benzamide] | 5.17
CN(C)/C=C/C(=O)c1ccc2noc(-c3cccc(F)c3)c2c1 [(E)-3-(dimethylamino)-1-[3-(3-fluorophenyl)-2,1-benzoxazol-5-yl]-2-propen-1-one] | 4.73
COc1cc(C=CC(=O)CC(=O)C=Cc2ccc(O)cc2)ccc1O [demethoxycurcumin] | 5.76
COc1c(O)cc2oc(-c3ccc(O)c(O)c3)cc(=O)c2c1O | 4.96
O=C(c1ccc2c3n(nc2c1)-c1ccccc1CO3)N1CCOCC1 [5H-indazolo[2,3-a][3,1]benzoxazin-9-yl(4-morpholinyl)methanone] | 4.74
CCCN1C=CC(=C2C(=O)c3ccccc3C2=O)C=C1 [2-(1-propyl-4-pyridinylidene)indene-1,3-dione] | 5.05
O=S(=O)(O)c1cccc(N=Nc2c(O)ccc3ccccc23)c1 [SMR000273743] | 5.46
c1coc(C2Nc3ccccc3-c3nc4ccccc4n32)c1 (stereo not given) [MLS000055458] | 4.51

SMILES | pEC50
COc1ccc(-c2oc3ncnc(NCCCN(C)C)c3c2-c2ccc(OC)cc2)cc1 [N-[5,6-bis(4-methoxyphenyl)furo[2,3-d]pyrimidin-4-yl]-N',N'-dimethyl-propane-1,3-diamine] | 4.47
O=c1c(O)c(-c2ccc(O)c(O)c2)oc2cc(O)cc(O)c12 [2-(3,4-dihydroxyphenyl)-3,5,7-trihydroxy-chromone;hydrate] | 4.91
Fc1ccc(-c2c[nH]cn2)cc1 [4-(4-fluorophenyl)-1H-imidazole] | < 3.92
COc1ccc(-c2nc(-c3ccccn3)no2)cc1 [5-(4-methoxyphenyl)-3-(2-pyridinyl)-1,2,4-oxadiazole] | < 3.92
COc1cc(C=Nn2c(-c3cc(C)[nH]n3)n[nH]c2=S)ccc1O [MLS000778764] | 4.56
Oc1ccc(C=Nn2c(-c3ccccc3)n[nH]c2=S)cc1 [SMR000513437] | 4.59
O=C(Nc1nccs1)c1ccc(N2CCOCC2)c([N+](=O)[O-])c1 [4-morpholin-4-yl-3-nitro-N-(1,3-thiazol-2-yl)benzamide] | 4.38
Cc1occc1C(=O)NN=Cc1ccc(N(C)C)cc1 [N-[[4-(dimethylamino)phenyl]methylideneamino]-2-methylfuran-3-carboxamide] | < 3.92
COc1cc(C=Nn2c(-c3ccccc3)n[nH]c2=S)ccc1O [(4E)-2-methoxy-4-[[(3-phenyl-5-sulfanylidene-1H-1,2,4-triazol-4-yl)amino]methylidene]cyclohexa-2,5-dien-1-one] | 5.15
Cc1sc2ncnc(N=NCc3cccc(O)c3)c2c1C [SMR000219295] | 4.77
Cc1nc[nH]c1C(=O)NN=Cc1c(Cl)cccc1Cl [MLS001182271] | < 3.92
COc1ccc2c(c1)C(=Cc1cnc[nH]1)C(=O)N2 | 5.11
O=C1c2ccccc2C(=O)C1c1ccncc1 [2-(1H-pyridin-4-ylidene)indane-1,3-quinone] | 4.99
COc1cc2c(ccc3cc(OC)c(OC)c(O)c32)cc1O [3,6,7-trimethoxyphenanthrene-2,5-diol] | 4.56
c1ccc2c3c([nH]c2c1)-c1n[nH]cc1CC3 [3,4,16-triazatetracyclo[7.7.0.0^{2,6}.0^{10,15}]hexadeca-1(9),2,5,10,12,14-hexaene] | 4.21
COc1cc(C2c3sc(=O)[nH]c3Sc3c2c(O)n(-c2ccc(C)cc2)c3O)ccc1O (stereo not given) [SMR000414898] | < 3.92
COc1ccc(C(=O)ON=C(N)c2ccccc2)cc1 | < 3.92
Cc1c(C(=O)OCC(=O)N2c3ccccc3CC2C)oc2ccccc12 (stereo not given) [3-methyl-2-benzofurancarboxylic acid [2-(2-methyl-2,3-dihydroindol-1-yl)-2-oxoethyl] ester] | < 3.92
Cc1cc(C(=O)O)ccc1N=Cc1c(O)ccc2ccccc12 [4-[(2-Hydroxy-naphthalen-1-ylmethylene)-amino]-3-methyl-benzoic acid] | 4.64
COc1cc(C=Nn2c(C3CCCCC3)n[nH]c2=S)ccc1O [(4E)-4-[[(3-cyclohexyl-5-sulfanylidene-1H-1,2,4-triazol-4-yl)amino]methylidene]-2-methoxy-cyclohexa-2,5-dien-1-one] | 4.66
O=C(O)Cc1ccc(N=Cc2c(O)ccc3ccccc23)cc1 [(4-{[(2-hydroxy-1-naphthyl)methylene]amino}phenyl)acetic acid] | 4.97
O=C(Nc1cc(C(=O)Nc2ccccc2C(=O)O)cc(C(=O)Nc2ccccc2C(=O)O)c1)c1ccccc1 [SMR000658665] | < 3.92

— BindingDB's records for doi:10.7270/Q2B27SRF (Broad Institute, 2010)
